Several values for one entry are separate records, joined by “and”; a condition that tells them apart may be missing. Identical values can stand only once.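 Tested at 5 concentrations; 48 h exposure; 96-well plates; endpoints linearly interpolated, else capped at highest concentration. Here, GI50 denotes the concentration required for 50% inhibition of growth. The concentration for full growth arrest is given as TGI.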
Legend:
Assay in all cases: growth of human tumour cells (NCI), 48 h
[1] = test system: PC-3 prostate
[2] = test system: NCI-H522 lung
[3] = test system: CAKI-1 renal
[4] = test system: HOP-92 NSCLC
[5] = test system: SK-MEL-28 melanoma
[6] = test system: SK-MEL-2 melanoma
[7] = test system: SK-MEL-5 melanoma
[8] = test system: HT29 colon
[9] = test system: HCC-2998 colon
[10] = test system: OVCAR-4 ovarian
[11] = test system: SW-620 colon
[12] = test system: NCI/ADR-RES ovarian
[13] = test system: HL-60(TB) leukemia
[14] = test system: MOLT-4 leukemia
[15] = test system: KM12 colon
[16] = test system: MALME-3M melanoma
[17] = test system: BT-549 breast
[18] = test system: MDA-MB-435
[19] = test system: NCI-H226 lung
[20] = test system: COLO 205 colon
[21] = test system: HCT-15 colon
[22] = test system: RPMI-8226 leukemia
[23] = test system: SNB-19 CNS
[24] = test system: HS 578T breast
[25] = test system: SF-295 CNS
[26] = test system: 786-0 renal
[27] = test system: UACC-257 melanoma
[28] = test system: A549 NSCLC
[29] = test system: MCF7 breast
[30] = test system: UO-31 renal
[31] = test system: MDA-MB-231 breast
[32] = test system: EKVX NSCLC
[33] = test system: SN12C renal
[34] = test system: SF-539 CNS
[35] = test system: IGROV1 ovarian
[36] = test system: SK-OV-3 ovarian
[37] = test system: DU-145 prostate
[38] = test system: RXF 393 renal
[39] = test system: SNB-75 CNS
[40] = test system: CCRF-CEM leukemia
[41] = test system: SF-268 CNS
[42] = test system: NCI-H23 lung
[43] = test system: TK-10 renal
[44] = test system: NCI-H460 lung
[45] = test system: ACHN renal
[46] = test system: A498 renal
[47] = test system: UACC-62 melanoma
[48] = test system: OVCAR-8 ovarian
[49] = test system: T-47D breast
[50] = test system: K-562 leukemia
[51] = test system: SR leukemia
[52] = test system: OVCAR-3 ovarian
[53] = test system: HCT-116 colon
[54] = test system: M14 melanoma
[55] = test system: U251 CNS
[56] = test system: OVCAR-5 ovarian
[57] = test system: LOX IMVI melanoma

For `CN1CC[C@H](N(C)C(=O)N2CC(c3cc(F)ccc3F)=C[C@@]2(CO)c2ccccc2)[C@H](F)C1`, the GI50 [1] was 0.0409 µM, the TGI [1] was over 100 µM and the GI50 [2] was 0.00871 µM. It also gave a GI50 [3] of 0.0459 µM, a TGI [3] of over 100 µM and a GI50 [4] of 0.143 µM. It also gave a TGI [4] of 79.7 µM, a TGI [5] of 28.3 µM and a GI50 [6] of 0.0282 µM. It also gave a TGI [6] of 79.4 µM, a GI50 [7] of 0.00471 µM and a TGI [7] of 14.1 µM. For the same compound, the GI50 [8] was 0.0411 µM, the TGI [8] was over 100 µM and the GI50 [9] was 0.037 µM. It also gave a TGI [9] of 13.4 µM, a GI50 [10] of 20.5 µM and a TGI [10] of over 100 µM. For the same compound, the GI50 [11] was 0.00854 µM, the TGI [11] was over 100 µM and the GI50 [12] was 0.0205 µM. For the same compound, the TGI [12] was 1.3 µM, the GI50 [13] was 0.0337 µM and the TGI [13] was over 100 µM. For the same compound, the GI50 [14] was 0.0377 µM, the TGI [14] was over 100 µM and the GI50 [15] was 0.0277 µM. The TGI [15] was over 100 µM, the TGI [16] was 27.9 µM and the GI50 [17] was 0.0421 µM. It also gave a TGI [17] of 37.7 µM, a GI50 [18] of 0.00258 µM and a TGI [18] of 0.00772 µM. It also gave a GI50 [19] of 40.4 µM, a TGI [19] of over 100 µM and a TGI [20] of 3.77 µM. It also gave a GI50 [21] of 0.00418 µM, a TGI [21] of over 100 µM and a GI50 [22] of 0.0294 µM. The TGI [22] was 40.8 µM, the GI50 [23] was 0.0259 µM and the TGI [23] was over 100 µM. For the same compound, the GI50 [24] was 0.0293 µM, the TGI [24] was 7.88 µM and the GI50 [25] was 0.0148 µM. For the same compound, the TGI [25] was 18.2 µM, the GI50 [26] was 0.0072 µM and the TGI [26] was over 100 µM. It also gave a TGI [27] of 41.4 µM, a GI50 [28] of 0.0383 µM and a TGI [28] of over 100 µM. It also gave a GI50 [29] of 0.00333 µM, a TGI [29] of 77.6 µM and a GI50 [30] of 7.74 µM. For the same compound, the TGI [30] was over 100 µM, the GI50 [31] was 0.0112 µM and the TGI [31] was 15.3 µM. The TGI [32] was over 100 µM, the GI50 [33] was 0.0631 µM and the TGI [33] was over 100 µM. For the same compound, the GI50 [34] was 0.00498 µM, the TGI [35] was over 100 µM and the GI50 [36] was 0.00588 µM. For the same compound, the TGI [36] was over 100 µM, the GI50 [37] was 0.033 µM and the TGI [37] was 35.4 µM. The GI50 [38] was 0.0052 µM, the TGI [38] was 5.13 µM and the GI50 [39] was 0.0402 µM. It also gave a TGI [39] of 34.9 µM, a GI50 [40] of 0.017 µM and a TGI [40] of over 100 µM. The GI50 [41] was 0.0279 µM, the TGI [41] was over 100 µM and the GI50 [42] was 0.0371 µM. The TGI [42] was over 100 µM, the GI50 [43] was 27.7 µM and the TGI [43] was over 100 µM. The GI50 [44] was 0.0308 µM, the TGI [44] was over 100 µM and the GI50 [45] was 0.0373 µM and 0.0195 µM. The TGI [45] was over 100 µM, the GI50 [46] was 0.0211 µM and the TGI [46] was 24.8 µM. For the same compound, the GI50 [47] was 0.0386 µM, the TGI [47] was 25 µM and the GI50 [48] was 0.058 µM. For the same compound, the TGI [48] was over 100 µM, the GI50 [49] was 0.0635 µM and the TGI [49] was over 100 µM. For the same compound, the GI50 [50] was 0.00744 µM, the TGI [50] was over 100 µM and the GI50 [51] was 0.00871 µM. The TGI [51] was 40.5 µM, the GI50 [52] was 0.0196 µM and the GI50 [53] was 0.00335 µM. It also gave a TGI [53] of over 100 µM, a GI50 [54] of 0.00202 µM and a TGI [54] of 0.00507 µM. For the same compound, the TGI [55] was over 100 µM, the GI50 [56] was 0.0669 µM and 0.0212 µM and the TGI [56] was over 100 µM. For the same compound, the GI50 [57] was 0.0415 µM and the TGI [57] was over 100 µM.
